In PMC9266351, “Degradation and Detoxification of Chlorophenols with Different Structure by LAC-4 Laccase Purified from White-Rot Fungus Ganoderma lucidum” (International Journal of Environmental Research and Public …, 2022) one finds Km data, which are given here for five molecules.

Molecules are shown by their SMILES.

Common to all, as to format: biochemical, Ganoderma lucidum
In test [1] the test system is T1, LAC-4 laccase.
T1 construct: native secreted enzyme purified from culture filtrate (GYP medium, CuSO4-induced; ammonium sulfate, anion exchange, hydrophobic chromatography); about 56 kDa by SDS-PAGE
Kind of test: degradation over […] min; Lineweaver-Burk plot. The conditions noted are these: 50 mM acetate pH 5.0, 30 °C; 0.1-8 mM substrate, 1 U/mL enzyme.

Test [2] concerns T1, LAC-4 laccase. In words: degradation over […] min; Lineweaver-Burk plot. Particulars: 50 mM acetate pH 5.0, 30 °C; 0.1-8 mM substrate, 1 U/mL enzyme. The source holds these as a separate data set.
Test [3] deals with T1, LAC-4 laccase. Kind of test: spectrophotometric oxidation at […] nm; non-linear Michaelis-Menten fit. Particulars: 50 mM acetate pH 5.0, 30 °C; 0.01-0.06 mM substrate (all below Km), 0.01 U/mL enzyme.
Test [4] has as its system T1, LAC-4 laccase. Described as above. The conditions noted are these: 50 mM acetate pH 5.0, 30 °C; 0.01-0.1 mM substrate, 0.01 U/mL enzyme.
Test [5] concerns T1, LAC-4 laccase. Described as above. The conditions noted are these: 50 mM acetate pH 5.0, 30 °C; 0.1-1.0 mM substrate, 0.01 U/mL enzyme.

What is called Km is the concentration of substrate that gives half-maximal velocity.

As for `Oc1c(Cl)ccc(Cl)c1Cl` [2,3,6-TCP], the Km with LAC-4 laccase [1] was found to be 4880 µM.

With `Oc1c(Cl)cccc1Cl` [2,6-DCP], the Km with LAC-4 laccase [2] is 3640 µM. Consider `COc1cccc(OC)c1O` [2,6-DMP], for which the Km with LAC-4 laccase [3] came to 803 µM.

For the molecule `CCn1c(=NN=c2sc3cc(S(=O)(=O)O)ccc3n2CC)sc2cc(S(=O)(=O)O)ccc21` [ABTS], the Km in the test with LAC-4 laccase [4] is 75 µM. Turning to `COc1ccccc1O` [guaiacol], in the test with LAC-4 laccase [5], the Km stood at 97 µM.
